Experimental data published in patent US9801973B1, “Peptide having zirconia-binding capacity” (SEOUL NATIONAL UNIVERSITY R&DB FOUNDATION, priority 2015, dated 2017).

Key:
[1] = binding assay using an avidin-biotin complex (binding affinity of zirconia-binding peptide); details: biotin-labeled peptide, 100 nM to 1 μM, room temperature 15 hours
From the text: (§1) In order to examine the binding affinities of the peptides synthesized in Example 1 and Comparative Examples 1 and 2, the peptides were labeled with biotin. Each of the synthesized peptide domains was biotinylated using EZ-Link Sulfo-NHS-Biotin (Pierce Biotechnology, USA) according to the manufacturer's instruction, and unbound byproducts were removed by ultrafiltration that is a membrane separation method based on a pressure difference. The molecular weights of the synthesized products were measured by mass spectrometry. The synthesized products were analyzed and purified by reverse phase liquid chromatography. For analysis, a C18 column having a diameter of 4.6 mm was used, and 0.1% TFA/H2O and 0.092% TFA/acetonitrile were flushed onto the column at a rate of 1 ml/min with a gradient of 0-60% for 30 minutes. The wavelength of the UV detector used was 220 nm. For purification, a column having a diameter of 2.2 cm was used, and a flow rate of 20 ml/min and the solvent and detection wavelength as described above were used. Only the biotin-labeled peptide fraction was collected, and concentrated using a rotary evaporator to remove the solvent, followed by freeze-drying.
To measure the binding affinity of the zirconia-binding peptide, a binding assay using an avidin-biotin complex was performed. Specifically, one zirconia disc was placed in each well of a 12-well polystyrene plate, and then blocked with a blocking buffer (0.1 M NaHCO3 (pH 8.6), 5 mg/ml BSA, 0.02% NaN3 (optional), filter sterilize) for at least one hour. Next, the blocking buffer was discarded, and each zirconia disc was strongly washed six times or more with a washing buffer (TBS+0.1% [v/v] Tween-20), after which 200 μl of each of the zirconia-binding peptide Zr-BP (SEQ ID NO: 1) of Example 1 and the peptides Zr-BPC (SEQ ID NO: 2), PL1 (SEQ ID NO: 3) and PL2 (SEQ ID NO: 4) of Comparative Examples 1 and 2, which were biotin-labeled, synthesized, separated and purified in Example 3-1, was dispensed to the surface of each zirconia disc at a concentration ranging from 100 nM to 1 μM. Each zirconia disc was incubated at room temperature for 15 hours, and then washed strongly with a washing buffer, and 200 μl of a 1:500 dilution of ExtrAvidin-peroxidase (Cat. #E2886, Sigma-Aldrich, USA) in a blocking buffer was dispensed to the surface of each zirconia disc. Each zirconia disc was incubated at room temperature for 1 hour, and then washed strongly with a washing buffer, after which 200 μl of a substrate solution (2,2′-AZINO-BIS, Cat. #A3219, Sigma-Aldrich, USA) was dispensed to the surface of each zirconia disc and allowed to react at room temperature for 20 minutes so as to develop color. Each zirconia disc was treated with 200 μl of 1% SDS solution to stop the reaction, and the absorbance at 405 nm was measured.

[2] = binding assay using an avidin-biotin complex (maximum binding amount per zirconia disc)
From the text: as §1
To examine the maximum binding amount of the zirconia-binding peptide Zr-BP (SEQ ID NO: 1) per unit area of the zirconia disc surface, a binding assay using a avidin-biotin complex was performed. Specifically, one zirconia disc was placed in each well of a 12-well polystyrene plate, and then blocked with a blocking buffer (0.1 M NaHCO3 (pH 8.6), 5 mg/ml BSA, 0.02% NaN3 (optional), filter sterilize) for at least one hour. […] Each zirconia disc was treated with 200 μl of 1% SDS solution to stop the reaction, and the absorbance at 405 nm was measured.

absorbance value at 405 nm (binding to the zirconia disc surface) ([1]; FIG. 2)	maximum amount of zirconia-binding peptide bound to the surface of one zirconia disc ([2]; back-calculation from molecular weight and dispensing amount, disc diameter 15.5 mm) [µg]	concentration showing the maximum absorbance value ([2]; biotin-labeled peptide, 100 nM to 40 mM, 200 μl per disc, room temperature 15 hours, FIG. 3) [mM]	zirconia-binding peptide fixed per mm^2 of the zirconia disc surface ([2]; per mm^2, disc diameter 15.5 mm)	Sequence	absorbance value at 405 nm (binding to the zirconia disc surface) ([1]; FIG. 1)
do not bind to the zirconia disc surface	–	–	–	IGNSFSFPAVYR (PL1)	–
do not bind to the zirconia disc surface	–	–	–	LRLDVDRAISLL (PL2)	–
–	–	–	–	VSAAGTKASPAV (Zr-BPC)	binding affinity thereof is reduced

Sequence	absorbance value at 405 nm (binding to the zirconia disc surface) ([1]; FIG. 2)	maximum amount of zirconia-binding peptide bound to the surface of one zirconia disc ([2]; back-calculation from molecular weight and dispensing amount, disc diameter 15.5 mm) [µg]	concentration showing the maximum absorbance value ([2]; biotin-labeled peptide, 100 nM to 40 mM, 200 μl per disc, room temperature 15 hours, FIG. 3) [mM]	zirconia-binding peptide fixed per mm^2 of the zirconia disc surface ([2]; per mm^2, disc diameter 15.5 mm)	absorbance value at 405 nm (binding to the zirconia disc surface) ([1]; FIG. 1)
VSPFGTKWSPFV (Zr-BP)	higher than those of the peptides (PL1 and PL2) of Comparative Example 2	622.8	2	about 3.3 μg	higher than that of the peptide Zr-BPC of Comparative Example 1
